According to US20240415819A1, “MACROCYCLIC COMPOUNDS AS PROTEASOME SUBUNIT BETA TYPE-5 INHIBITORS” (Lead Discovery Center GmbH, priority 2021, published 2024):

What was measured:
[1] = test system: A549 (human lung carcinoma cell line); assay: Glo assay of A549 cells (Table 3; ProteasomeGlo plating scheme); assay type: cell-based; conditions: Homo sapiens; A549 cells; read-out: PGLo A549
Procedure, shortened: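 IC50 values (nM) come from a cell-based chymotrypsin-like Proteasome-Glo luminescence assay. Compound exposure ran 105 min at 37° C.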

[2] = target: T1, β5 subunit of the human constitutive proteasome (CPS) (Homo sapiens, UniProt P28074); assay: β5 inhibition assay, human constitutive proteasome (Suc-LLVY-AMC); assay type: biochemical; conditions: IC50 class, Suc-LLVY-AMC substrate
T1 construct: purchased Boston Biochem E-360
Experimental: The enzymatic activity of the β5 subunit of the human constitutive proteasome (CPS) is analyzed. In another assay, which differs from the assay of the human constitutive proteasome only in using the human immunoproteasome (IPS) the enzymatic activity of the β5 subunit of the human immunoproteasome (IPS) is analyzed. […] Inhibition is indicated as IC50 [nM] (“-”=not measured).

HT-29 cells = assay: CellTiter-Glo luminescent cell viability assay with HT-29 cells (72h incubation); assay type: cell-based, human; conditions: Homo sapiens, HT-29, HT29 cells, read-out: CTG HT29
Procedure, shortened: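 400 cells per well in DMEM/10% FCS were dosed after 24 h and kept 72 h at 37 °C, 5% CO2. ATP-based luminescence (CellTiter-Glo) normalized to DMSO and 10 μM staurosporine controls; IC50 by dose-response fit.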

IC50 [1] [nM]	IC50 [2] [nM]	IC50 (HT-29 cells) [nM]	SMILES
< 100	< 100	< 100	Cc1ccc2cc1CNC(=O)[C@H](CCc1ccccc1)NC(=O)[C@@H](NC(=O)Cc1ccc(N)cc1)CC(=O)N1CCCC(CCO2)C1 (stereo partly drawn) [Compound 128, 2-(4-aminophenyl)-N-((9S,12S)-5^4-methyl-8,11,14-trioxo-9-phenethyl-4-oxa-7,10-diaza-1(3,1)-piperidina-5(1,3)-benzenacyclotetradecaphane-12-yl)acetamide]
< 100	< 100	< 100	CO[C@@H](C(=O)N[C@H]1CC(=O)N2CCCC(CCOc3ccc(C)c(c3)CNC(=O)[C@H](CCc3ccccc3)NC1=O)C2)c1ccccc1 (stereo partly drawn) [Compound 86, (2R)-2-methoxy-N-((9S,12S)-5^4-methyl-8,11,14-trioxo-9-phenethyl-4-oxa-7,10-diaza-1(3,1)-piperidina-5(1,3)-benzenacyclotetradecaphane-12-yl)-2-phenylacetamide]
100 to 500	< 100	100 to 500	Cc1ccc2cc1CNC(=O)[C@H](CCc1ccccc1)NC(=O)[C@@H](Nc1ccccn1)CC(=O)N1CCCC(CCO2)C1 (stereo partly drawn) [Compound 36, (9S,12S)-5^4-methyl-9-phenethyl-12-(pyridin-2-ylamino)-4-oxa-7,10-diaza-1(3,1)-piperidina-5(1,3)-benzenacyclotetradecaphane-8,11,14-trione]
< 100	< 100	< 100	Cc1ccc2cc1CNC(=O)[C@H](CCc1ccccc1)NC(=O)[C@@H](NC(=O)Cc1cccc(N)c1)CC(=O)N1CCCC(CCO2)C1 (stereo partly drawn) [Compound 127, 2-(3-aminophenyl)-N-((9S,12S)-5^4-methyl-8,11,14-trioxo-9-phenethyl-4-oxa-7,10-diaza-1(3,1)-piperidina-5(1,3)-benzenacyclotetradecaphane-12-yl)acetamide]
100 to 500	< 100	< 100	Cc1ccc2cc1CNC(=O)[C@H](CCc1ccccc1)NC(=O)[C@@H](NC(=O)OCc1ccccc1)CCCC(=O)N1CCCC(CCO2)C1 (stereo partly drawn) [Compound 195, benzyl ((9S,12S)-5^4-methyl-8,11,16-trioxo-9-phenethyl-4-oxa-7,10-diaza-1(3,1)-piperidina-5(1,3)-benzenacyclohexadecaphane-12-yl)carbamate]
< 100	< 100	< 100	Cc1ccc2cc1CNC(=O)[C@H](CCc1ccccc1)NC(=O)[C@@H](NS(=O)(=O)CCc1ccccc1)CC(=O)N1CCCC(CCO2)C1 (stereo partly drawn) [Compound 217, N-((9S,12S)-5^4-methyl-8,11,14-trioxo-9-phenethyl-4-oxa-7,10-diaza-1(3,1)-piperidina-5(1,3)-benzenacyclotetradecaphane-12-yl)-2-phenylethane-1-sulfonamide]

Further lines, the compound ahead of its results:

SMILES	IC50 [1] [nM]	IC50 [2] [nM]	IC50 (HT-29 cells) [nM]
CC(=O)N[C@H]1CCC(=O)N2CCCC(CCOc3ccc(C)c(c3)CNC(=O)[C@H](CCc3ccccc3)NC1=O)C2 (stereo partly drawn) [Compound 215, N-((9S,12S)-5^4-methyl-8,11,15-trioxo-9-phenethyl-4-oxa-7,10-diaza-1(3,1)-piperidina-5(1,3)-benzenacyclopentadecaphane-12-yl)acetamide]	100 to 500	< 100	< 100
CC(=O)N[C@H]1CCC(=O)N2CCOC(CCOc3ccc(C)c(c3)CNC(=O)[C@H](CCc3ccccc3)NC1=O)C2 (stereo partly drawn) [Compound 143, N-((9S,12S)-5^4-methyl-8,11,15-trioxo-9-phenethyl-4-oxa-7,10-diaza-1(2,4)-morpholina-5(1,3)-benzenacyclopentadecaphane-12-yl)acetamide]	100 to 500	< 100	100 to 500
CC(=O)N[C@H]1CCCC(=O)N2CC3CC(Oc4ccc(C)c(c4)CNC(=O)[C@H](CCc4ccccc4)NC1=O)C3C2 (stereo partly drawn) [Compound 191, N-((11R,15S,7S,10S)-3^4-methyl-6,9,14-trioxo-7-phenethyl-2-oxa-13,5,8-triaza-1(7,3)-bicyclo[3.2.0]heptana-3(1,3)-benzenacyclotetradecaphane-10-yl)acetamide]	1000 to 5000	500 to 1000	1000 to 5000
Cc1nc2cc(CCC(=O)N[C@H]3CC(=O)N4CCCC(CCOc5ccc(C)c(c5)CNC(=O)[C@H](CCc5ccccc5)NC3=O)C4)ccc2[nH]1 (stereo partly drawn) [Compound 174, 3-(2-methyl-1H-benzo[d]imidazol-6-yl)-N-((9S,12S)-5^4-methyl-8,11,14-trioxo-9-phenethyl-4-oxa-7,10-diaza-1(3,1)-piperidina-5(1,3)-benzenacyclotetradecaphane-12-yl)propanamide]	< 100	< 100	< 100
CC(=O)N[C@H]1CC(=O)N2CCCC(CCOc3ccc(F)c(c3)CNC(=O)[C@H](CCc3ccccc3)NC1=O)C2 (stereo partly drawn) [Compound 205, N-((9S,12S)-5^4-fluoro-8,11,14-trioxo-9-phenethyl-4-oxa-7,10-diaza-1(3,1)-piperidina-5(1,3)-benzenacyclotetradecaphane-12-yl)acetamide]	< 100	< 100	< 100
CNCC(=O)N[C@H]1CC(=O)N2CCCC(CCOc3ccc(C)c(c3)CNC(=O)[C@H](CCc3ccccc3)NC1=O)C2 (stereo partly drawn) [Compound 129, N-((9S,12S)-5^4-methyl-8,11,14-trioxo-9-phenethyl-4-oxa-7,10-diaza-1(3,1)-piperidina-5(1,3)-benzenacyclotetradecaphane-12-yl)-2-(methylamino)acetamide]	< 100	< 100	< 100
Cc1ccc2cc1CNC(=O)[C@H](CCc1ccccc1)NC(=O)[C@@H](NC(=O)C1(C)CCOCC1)CC(=O)N1CCCC(CCO2)C1 (stereo partly drawn) [Compound 288, 4-methyl-N-((9S,12S)-5^4-methyl-8,11,14-trioxo-9-phenethyl-4-oxa-7,10-diaza-1(3,1)-piperidina-5(1,3)-benzenacyclotetradecaphane-12-yl)tetrahydro-2H-pyran-4-carboxamide]	100 to 500	< 100	< 100
Cc1cc2cc(c1C)CNC(=O)[C@H](Cc1c[nH]c3ccccc13)NC(=O)CCC(=O)N1CCCC(CCO2)C1 (stereo partly drawn) [Compound 120, (9S)-9-((1H-indol-3-yl)methyl)-5^4,5^5-dimethyl-4-oxa-7,10-diaza-1(3,1)-piperidina-5(1,3)-benzenacyclotetradecaphane-8,11,14-trione]	1000 to 5000	< 100	100 to 500
Cc1ccc2cc1CNC(=O)C(c1cnn(C)c1)NC(=O)CCC(=O)N1CCCC(CCO2)C1 (stereo not drawn) [Compound 116, 5^4-methyl-9-(1-methyl-1H-pyrazol-4-yl)-4-oxa-7,10-diaza-1(3,1)-piperidina-5(1,3)-benzenacyclotetradecaphane-8,11,14-trione]	> 5000	> 5000	100 to 500
Cc1ccc2cc1CNC(=O)[C@H](CCc1ccccc1)NC(=O)[C@@H](NC(=O)C1(F)CCNCC1)CC(=O)N1CCCC(CCO2)C1 (stereo partly drawn) [Compound 134, 4-fluoro-N-((9S,12S)-5^4-methyl-8,11,14-trioxo-9-phenethyl-4-oxa-7,10-diaza-1(3,1)-piperidina-5(1,3)-benzenacyclotetradecaphane-12-yl)piperidine-4-carboxamide]	< 100	< 100	< 100
